Measurements from patent US5057493A, “Novel antibiotics R106” (priority 1988, dated 1991).
Starred links: 1 amine or outer side, 2 acyl side, 3 side chain; linkers in the order of their positions; H or OH if unused. Non-standard residues stand in square brackets, D forms with d. Residues, ends and D or L forms follow the SMILES beside them. ξ: configuration not given here. ξNMeVal(3-OH) = CNC(C(=O)O)C(C)(C)O; NMeF = CN[CH](Cc1ccccc1)C(=O)O; X1 = CCC(C)C(O[*:1])C(=O)[*:2]; NMeV = CN[CH](C(=O)O)C(C)C

Experiments:
[1] = tested on: Aspergillus clavatus TIMM 0056; test: MIC by agar dilution method, casitone agar; type: cell-based; settings: 27° C. for 7 days
[2] = tested on: Aspergillus flavus TIMM 0058; test: MIC by agar dilution method, casitone agar; type: cell-based; settings: 27° C. for 7 days
[3] = tested on: Aspergillus niger TIMM 0113; test: MIC by agar dilution method, casitone agar; type: cell-based; settings: 27° C. for 7 days
[4] = tested on: Aspergillus citrinum TIMM 1330; test: MIC by agar dilution method, casitone agar; type: cell-based; settings: 27° C. for 7 days
[5] = tested on: Aspergillus commune TIMM 1331; test: MIC by agar dilution method, casitone agar; type: cell-based; settings: 27° C. for 7 days
[6] = tested on: Epidermophyton floccosum TIMM 0431; test: MIC by agar dilution method, casitone agar; type: cell-based; settings: 27° C. for 7 days
[7] = tested on: Exophiala werneckii TIMM 1334; test: MIC by agar dilution method, casitone agar; type: cell-based; settings: 27° C. for 7 days
[8] = tested on: Cladosporium carrionii TIMM 0337; test: MIC by agar dilution method, casitone agar; type: cell-based; settings: 27° C. for 7 days
[9] = tested on: Sporothrix schenckii TIMM 0959; test: MIC by agar dilution method, casitone agar; type: cell-based; settings: 27° C. for 7 days
[10] = tested on: Histoplasma capsulatum TIMM 0713; type: cell-based; settings: 27° C. for 7 days
[11] = tested on: Histoplasma capsulatum TIMM 0714; type: cell-based; settings: 27° C. for 7 days
[12] = tested on: Trichosporon cutanum TIMM 1318; test: MIC by agar dilution method, casitone agar; type: cell-based; settings: 27° C. for 7 days
[13] = tested on: Blastomyces dermatitidis TIMM 0126; test: MIC by agar dilution method, casitone agar; type: cell-based; settings: 27° C. for 7 days
[14] = tested on: Candida albicans TIMM 1768; test: Systemic candidiasis model of mice; type: in vivo, ICR strain mice; settings: for Mean Survival Day: 3 hours after infection, then once a day for 4 days, 30 days; for Number of Animal Survived/Number of Animal Tested: 30 days after infection; for T/C: mean survival day treated vs control
Method: Candida albicans TIMM 1768 was cultured in Sabouraud-dextrose broth at 37° C. overnight, and the cells were collected and suspended in physiological saline. A cell suspension containing 1×10^6 cells was intravenously injected to ICR strain mice (5 week age, female). After 3 hours, a solution of an antibiotic R106 in TWEEN 80-ethanolphysiological saline (1:9:90, v/v) was subcutaneously, intravenously or orally given to the mice in various concentrations, and then once a day for 4 days the R106 drug solution was given. Mortality was assessed for 30 days after infection to determine the therapeutic effect.
T/C is a value which expresses the mean survival day of the treated group
to the mean survival day of the not treated control group by %.

[15] = 50% lethal dose (LD50) in mice; type: in vivo
Description: All of the antibiotics R106 show low toxicity. The results of 50% lethal dose (LD50) obtained when each of representative compounds of the present invention was given to mice intravenously, intraperitoneally and orally are shown in Table 7.

**Q.** For CCC(C)C1NC(=O)C2CCCN2C(=O)C(Cc2ccccc2)N(C)C(=O)C(Cc2ccccc2)NC(=O)C(C(C)C)N(C)C(=O)C(C(C)CC)OC(=O)C(C(C)(C)O)N(C)C(=O)C(CC(C)C)NC(=O)C(C(C)C)N(C)C1=O (stereo not shown) [Compound 1] (cyclo([ξNMeVal(3-OH)][X1][NMeV]F[NMeF]PI[NMeV]L); configuration not given here), which “Minimum Inhibitory Concentration” value [1] is on record?
**A.** 0.16 µg/mL

**Q.** What about the “Minimum Inhibitory Concentration” value [2] of the same compound?
**A.** > 80 µg/mL

**Q.** What about the “Minimum Inhibitory Concentration” value [3] of the same compound?
**A.** > 80 µg/mL

**Q.** What about the “Minimum Inhibitory Concentration” value [4] of the same compound?
**A.** > 80 µg/mL

**Q.** And the “Minimum Inhibitory Concentration” value [5]?
**A.** 1.25 µg/mL

**Q.** And the “Minimum Inhibitory Concentration” value [6]?
**A.** 2.5 µg/mL

**Q.** And the “Minimum Inhibitory Concentration” value [7]?
**A.** 1.25 µg/mL

**Q.** What about the “Minimum Inhibitory Concentration” value [8] of the same compound?
**A.** 1.25 µg/mL

**Q.** What about the “Minimum Inhibitory Concentration” value [9] of the same compound?
**A.** > 80 µg/mL

**Q.** What about the “Minimum Inhibitory Concentration” value [10] of the same compound?
**A.** 0.16 µg/mL

**Q.** And the “Minimum Inhibitory Concentration” value [11]?
**A.** 0.08 µg/mL

**Q.** What about the “Minimum Inhibitory Concentration” value [12] of the same compound?
**A.** > 80 µg/mL

**Q.** What about the “Minimum Inhibitory Concentration” value [13] of the same compound?
**A.** 0.31 µg/mL

**Q.** What about the “Mean Survival Day” value ([14]; i.v. 0.875 mg/kg) of the same compound?
**A.** 14.6 ± 1.9 days

**Q.** And the “Number of Animal Survived/Number of Animal Tested” value ([14]; i.v. 0.875 mg/kg)?
**A.** 0/5

**Q.** What about the T/C ([14]; i.v. 0.875 mg/kg) of the same compound?
**A.** 119%

**Q.** And the “Mean Survival Day” value ([14]; i.v. 1.75 mg/kg)?
**A.** 18.2 ± 5.0 days

**Q.** And the “Number of Animal Survived/Number of Animal Tested” value ([14]; i.v. 1.75 mg/kg)?
**A.** 0/5

**Q.** What about the T/C ([14]; i.v. 1.75 mg/kg) of the same compound?
**A.** 149%

**Q.** What about the “Mean Survival Day” value ([14]; i.v. 3.5 mg/kg) of the same compound?
**A.** 19.2 ± 6.3 days

**Q.** And the “Number of Animal Survived/Number of Animal Tested” value ([14]; i.v. 3.5 mg/kg)?
**A.** 0/5

**Q.** And the T/C ([14]; i.v. 3.5 mg/kg)?
**A.** 157%

**Q.** What about the “Mean Survival Day” value ([14]; i.v. 7 mg/kg) of the same compound?
**A.** 29.0 ± 2.2 days

**Q.** And the “Number of Animal Survived/Number of Animal Tested” value ([14]; i.v. 7 mg/kg)?
**A.** 4/5

**Q.** What about the T/C ([14]; i.v. 7 mg/kg) of the same compound?
**A.** 237%

**Q.** What about the “Mean Survival Day” value ([14]; i.v. 14 mg/kg) of the same compound?
**A.** 26.6 ± 5.0 days

**Q.** And the “Number of Animal Survived/Number of Animal Tested” value ([14]; i.v. 14 mg/kg)?
**A.** 3/5

**Q.** What about the T/C ([14]; i.v. 14 mg/kg) of the same compound?
**A.** 217%

**Q.** What about the “Mean Survival Day” value ([14]; p.o. 7 mg/kg) of the same compound?
**A.** 14.8 ± 4.8 days

**Q.** What about the “Number of Animal Survived/Number of Animal Tested” value ([14]; p.o. 7 mg/kg) of the same compound?
**A.** 0/5

**Q.** What about the T/C ([14]; p.o. 7 mg/kg) of the same compound?
**A.** 121%

**Q.** What about the “Mean Survival Day” value ([14]; p.o. 14 mg/kg) of the same compound?
**A.** 23.2 ± 6.2 days

**Q.** What about the “Number of Animal Survived/Number of Animal Tested” value ([14]; p.o. 14 mg/kg) of the same compound?
**A.** 0/5

**Q.** And the T/C ([14]; p.o. 14 mg/kg)?
**A.** 189%

**Q.** What about the “Mean Survival Day” value ([14]; p.o. 28 mg/kg) of the same compound?
**A.** 30.0 ± 0 days

**Q.** And the “Number of Animal Survived/Number of Animal Tested” value ([14]; p.o. 28 mg/kg)?
**A.** 5/5

**Q.** And the T/C ([14]; p.o. 28 mg/kg)?
**A.** 245%

**Q.** What about the “Mean Survival Day” value ([14]; s.c. 1.75 mg/kg) of the same compound?
**A.** 14.2 ± 2.9 days

**Q.** And the “Number of Animal Survived/Number of Animal Tested” value ([14]; s.c. 1.75 mg/kg)?
**A.** 0/5

**Q.** What about the T/C ([14]; s.c. 1.75 mg/kg) of the same compound?
**A.** 116%

**Q.** What about the “Mean Survival Day” value ([14]; s.c. 3.5 mg/kg) of the same compound?
**A.** 18.8 ± 3.5 days

**Q.** And the “Number of Animal Survived/Number of Animal Tested” value ([14]; s.c. 3.5 mg/kg)?
**A.** 0/5

**Q.** What about the T/C ([14]; s.c. 3.5 mg/kg) of the same compound?
**A.** 153%

**Q.** What about the “Mean Survival Day” value ([14]; s.c. 7 mg/kg) of the same compound?
**A.** 22.4 ± 7.0 days

**Q.** And the “Number of Animal Survived/Number of Animal Tested” value ([14]; s.c. 7 mg/kg)?
**A.** 2/5

**Q.** And the T/C ([14]; s.c. 7 mg/kg)?
**A.** 183%

**Q.** What about the “Mean Survival Day” value ([14]; s.c. 14 mg/kg) of the same compound?
**A.** 27.2 ± 6.3 days

**Q.** And the “Number of Animal Survived/Number of Animal Tested” value ([14]; s.c. 14 mg/kg)?
**A.** 4/5

**Q.** What about the T/C ([14]; s.c. 14 mg/kg) of the same compound?
**A.** 222%

**Q.** What about the LD50 ([15]; i.p.) of the same compound?
**A.** > 400 mg/kg

**Q.** And the LD50 ([15]; i.v.)?
**A.** > 200 mg/kg

**Q.** What about the LD50 ([15]; p.o.) of the same compound?
**A.** > 1000 mg/kg
